The source made the active and inactive calls.
Tests used:
[1] = target: T1, Corticotropin-releasing factor receptor 2/Corticotropin-releasing factor-binding protein (Homo sapiens, UniProt P24387+Q13324); experiment: Dose Response confirmation of uHTS hits for small molecule antagonists of the CRF-binding protein and CRF-R2 receptor complex.; format: functional; details: read-out: IC50_Mean
T1 sequence (Q13324 whole entry): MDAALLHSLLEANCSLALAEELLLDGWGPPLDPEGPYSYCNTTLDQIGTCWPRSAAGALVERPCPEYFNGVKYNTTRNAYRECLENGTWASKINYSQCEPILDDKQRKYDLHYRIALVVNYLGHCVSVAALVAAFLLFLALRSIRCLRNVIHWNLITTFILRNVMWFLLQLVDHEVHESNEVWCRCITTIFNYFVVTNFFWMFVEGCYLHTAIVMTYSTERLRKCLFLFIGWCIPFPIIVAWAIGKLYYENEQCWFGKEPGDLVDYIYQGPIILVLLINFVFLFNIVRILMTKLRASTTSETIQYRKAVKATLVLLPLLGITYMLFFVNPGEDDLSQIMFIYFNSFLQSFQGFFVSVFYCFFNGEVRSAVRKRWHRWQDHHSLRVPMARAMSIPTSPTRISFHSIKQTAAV
T1 sequence (P24387 whole entry): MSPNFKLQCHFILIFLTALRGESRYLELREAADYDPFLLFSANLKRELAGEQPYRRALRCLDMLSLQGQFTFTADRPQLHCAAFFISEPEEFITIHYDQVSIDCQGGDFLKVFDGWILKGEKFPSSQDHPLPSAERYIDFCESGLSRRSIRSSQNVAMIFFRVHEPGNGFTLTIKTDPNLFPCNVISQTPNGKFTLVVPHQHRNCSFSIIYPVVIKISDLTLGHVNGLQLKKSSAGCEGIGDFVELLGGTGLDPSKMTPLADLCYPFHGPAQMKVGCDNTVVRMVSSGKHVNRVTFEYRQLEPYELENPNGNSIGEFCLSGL

[2] = target: T1, Corticotropin-releasing factor receptor 2/Corticotropin-releasing factor-binding protein; experiment: activators of CRF receptor 2 with binding protein – uHTS hits, confirmation (AID 602473); format: functional; details: read-out: EC50_Mean
[3] = viability of uninfected HEp-2 cells – cell-based, HTS, cytotoxicity control for RSV inhibitor project, dose response (AID 2410); format: functional; details: human respiratory syncytial virus
[4] = target: T2, Replicative DNA helicase DnaB (Mycobacterium tuberculosis, UniProt P9WMR3); experiment: DnaB intein splicing inhibitors, dose response, biochemical, cell-free fluorescence (AID 449749); format: functional
T2 sequence (P9WMR3 whole entry): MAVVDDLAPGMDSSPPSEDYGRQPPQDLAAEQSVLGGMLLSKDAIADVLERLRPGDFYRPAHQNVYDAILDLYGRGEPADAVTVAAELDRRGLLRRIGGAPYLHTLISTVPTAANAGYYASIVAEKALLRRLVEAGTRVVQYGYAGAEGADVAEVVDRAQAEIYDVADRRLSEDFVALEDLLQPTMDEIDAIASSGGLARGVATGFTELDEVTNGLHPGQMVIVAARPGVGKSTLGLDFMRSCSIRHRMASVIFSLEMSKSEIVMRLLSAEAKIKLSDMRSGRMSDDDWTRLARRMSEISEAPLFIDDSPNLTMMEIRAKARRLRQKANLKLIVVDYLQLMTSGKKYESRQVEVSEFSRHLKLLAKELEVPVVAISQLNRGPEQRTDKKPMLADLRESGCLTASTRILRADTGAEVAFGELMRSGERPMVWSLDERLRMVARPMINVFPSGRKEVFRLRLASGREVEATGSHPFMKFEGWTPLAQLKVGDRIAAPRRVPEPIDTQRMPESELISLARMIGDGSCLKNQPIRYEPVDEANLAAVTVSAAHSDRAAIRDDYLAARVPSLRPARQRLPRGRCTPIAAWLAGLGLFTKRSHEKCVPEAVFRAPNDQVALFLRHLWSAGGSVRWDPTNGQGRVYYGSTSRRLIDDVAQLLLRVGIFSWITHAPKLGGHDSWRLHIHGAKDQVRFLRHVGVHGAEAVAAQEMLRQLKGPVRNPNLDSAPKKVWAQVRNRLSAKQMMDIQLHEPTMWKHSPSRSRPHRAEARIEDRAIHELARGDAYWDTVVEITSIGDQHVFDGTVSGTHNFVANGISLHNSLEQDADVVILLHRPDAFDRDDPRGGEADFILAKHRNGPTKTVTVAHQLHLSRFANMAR

Protein RecA = target: T3, Protein RecA (Mycobacterium tuberculosis, UniProt P9WHJ3); experiment: Fluorescence Cell-Free Homogeneous Dose Retest to Identify Inhibitors of RecA-Intein Splicing Activity. [Related pubchem assays (depositor defined):AID2097, AID2223, AID489010, AID492950]; format: functional
T3 sequence (P9WHJ3 whole entry): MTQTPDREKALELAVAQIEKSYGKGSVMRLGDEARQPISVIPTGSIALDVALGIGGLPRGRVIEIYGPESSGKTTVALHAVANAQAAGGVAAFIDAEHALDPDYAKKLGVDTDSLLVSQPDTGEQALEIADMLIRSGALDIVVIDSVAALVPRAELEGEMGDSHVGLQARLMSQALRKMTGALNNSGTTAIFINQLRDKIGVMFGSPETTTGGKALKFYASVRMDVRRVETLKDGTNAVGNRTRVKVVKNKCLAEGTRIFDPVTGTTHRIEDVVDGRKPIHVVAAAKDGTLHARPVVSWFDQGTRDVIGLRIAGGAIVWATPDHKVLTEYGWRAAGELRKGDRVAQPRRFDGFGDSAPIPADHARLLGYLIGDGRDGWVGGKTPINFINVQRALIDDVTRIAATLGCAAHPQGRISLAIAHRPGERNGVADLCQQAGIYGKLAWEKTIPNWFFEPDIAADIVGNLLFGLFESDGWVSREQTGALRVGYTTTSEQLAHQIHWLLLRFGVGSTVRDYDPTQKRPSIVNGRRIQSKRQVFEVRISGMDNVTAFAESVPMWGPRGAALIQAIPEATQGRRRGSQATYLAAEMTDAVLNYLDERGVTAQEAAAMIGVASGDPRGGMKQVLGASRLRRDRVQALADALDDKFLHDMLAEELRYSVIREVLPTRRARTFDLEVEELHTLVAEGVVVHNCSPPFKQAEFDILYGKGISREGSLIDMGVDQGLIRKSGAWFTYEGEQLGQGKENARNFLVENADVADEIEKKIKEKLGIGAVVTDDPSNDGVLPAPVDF

[5] = test system: Streptococcus sp. 'group A'; experiment: Streptococcus pyogenes SK(-)GAS viability under kanamycin – luminescence, BacTiterGlo, confirmation, counter-screen for streptokinase expression inhibitor project, dose response (AID 1900); format: functional, organism-based
Streptokinase A = target: T4, Streptokinase A (Streptococcus pyogenes serotype M1, UniProt P10520); experiment: viability-normalized secreted streptokinase activity reduction – plasminogen activation absorbance, OD405, dose response (AID 1914); format: functional, Streptococcus pyogenes M1 GAS;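 also: secreted streptokinase activity via plasminogen activation per viability signal from cell pellet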
T4 sequence (P10520 whole entry): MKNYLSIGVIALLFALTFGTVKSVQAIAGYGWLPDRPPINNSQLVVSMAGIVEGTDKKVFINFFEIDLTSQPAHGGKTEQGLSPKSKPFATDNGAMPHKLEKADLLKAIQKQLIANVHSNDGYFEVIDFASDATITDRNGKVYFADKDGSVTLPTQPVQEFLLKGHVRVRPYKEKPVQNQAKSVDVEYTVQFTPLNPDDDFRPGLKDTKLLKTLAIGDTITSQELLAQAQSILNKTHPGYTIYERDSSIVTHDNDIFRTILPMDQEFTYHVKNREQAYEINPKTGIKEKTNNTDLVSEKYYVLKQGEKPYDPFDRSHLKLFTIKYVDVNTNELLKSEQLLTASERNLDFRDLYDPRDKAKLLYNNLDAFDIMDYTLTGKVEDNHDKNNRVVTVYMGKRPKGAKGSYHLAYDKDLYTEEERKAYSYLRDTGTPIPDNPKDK

Streptococcus = experiment: GAS UMAA2166 growth inhibition – luminescence, BacTiterGlo, counter-screen for streptokinase expression inhibitor project, dose response (AID 1915); format: functional, organism-based;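 also: potency for reduction of bacterial viability or growth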

For `COc1ccc(N(CC(=O)N/N=C/c2ccc3c(c2)OCO3)S(=O)(=O)c2ccc(NC(C)=O)cc2)cc1`, the IC50 [1] was > 47.1 µM (inactive) and the EC50 [2] was > 53 µM (inactive).

In the case of `CCC(=O)Nc1cccc(-c2csc(-c3ccccc3)n2)c1`, the CC50 [3] was 26.4 µM (active).

With `CCCC(=O)Nc1ccc2c(c1)Cc1ccccc1-2` the CC50 [3] was > 50 µM (active).

In the case of `Cc1occc1C(=O)N/N=C/C(Br)=C/c1ccccc1`, the CC50 [3] was 32 µM (active).

In the case of `COCCN1CCC(CO)C1` (centres undefined), the IC50 [1] was > 47.1 µM (inactive) and the EC50 [2] was > 53 µM (inactive).

With `O=C1C([O-])=C([n+]2ccccc2)C(=O)c2ccccc21` the AC50 [4] was 2.79 µM (active) and the EC50 (Protein RecA) was 3.52 µM (active).

With `C/C(=N\NC1=NC(=O)C(CC(=O)Nc2ccc(C)c(Cl)c2)S1)C(C)(C)C` (centres undefined) the CC50 [3] was 13.8 µM (active).

With `Cc1cc(C)cc(NC(=O)c2ccc(N3C(=O)C4CCCCC4C3=O)cc2)c1` (centres undefined) the IC50 [1] was > 47.1 µM (inactive) and the EC50 [2] was > 53 µM (inactive).

For `CSc1ccccc1NC(=O)COC(=O)c1c[nH]c(=O)[nH]c1=O`, the EC50 [2] was > 53 µM (inactive).

For `Cc1cc(/C=C(/C#N)c2nc3ccccc3[nH]2)c(C)n1-c1cccc([N+](=O)[O-])c1`, the CC50 [3] was 22.6 µM (active).

In the case of `COC(=O)C(C)N(C(=O)c1cccc2ccccc12)c1c(C)cccc1C` (centres undefined), the CC50 [3] was 19.9 µM (active).

In the case of `CSc1ccccc1C(=O)N1CCN(S(=O)(=O)c2sc(C(=O)O)c(C)c2C(=O)O)CC1`, the IC50 [1] was > 47.1 µM (inactive) and the EC50 [2] was > 53 µM (inactive).

In the case of `CC(C)Cc1ccc(-c2cc(O)[nH]n2)cc1`, the AC50 [4] was 1.79 µM (active) and the EC50 (Protein RecA) was 0.664 µM (active).

In the case of `O=C(COc1cccc(Cl)c1)Nc1ccc(N2CCOCC2)cc1`, the IC50 [1] was > 47.1 µM (inactive) and the EC50 [2] was > 53 µM (inactive).

With `Cc1cc2c3c(c1)C(C)CC(C)(C)N3C(=O)C2=C(C#N)C#N` (centres undefined) the AC50 [4] was 23.8 µM (active) and the EC50 (Protein RecA) was 2.22 µM (active).

In the case of `CC(C)(CSc1ncccn1)NS(=O)(=O)c1ccccc1`, the IC50 [1] was > 47.1 µM (inactive) and the EC50 [2] was > 53 µM (inactive).

For `Cc1onc(-c2ccccc2)c1CNC(=O)CN1C(=O)c2ccccc2C1=O`, the IC50 [1] was > 47.1 µM (inactive) and the EC50 [2] was > 53 µM (inactive).

With `CCN1N=C(c2cc(Cl)sc2Cl)CSC1=O` the CC50 [3] was > 50 µM (active).

In the case of `CN(CCc1cnn(C)c1)C(=O)C1CCC(=O)N(CC2CCCCC2)C1` (centres undefined), the AC50 [4] was > 380 µM (inactive) and the EC50 (Protein RecA) was > 380 µM (inactive).

With `CCOc1cc2[nH]c(=O)n(Cc3ccccc3)c(=O)c2cc1OCC` the IC50 [1] was > 47.1 µM (inactive) and the EC50 [2] was > 53 µM (inactive).

For `COc1ccc(-c2csc(NC(=O)CS(=O)(=O)c3ccccc3)n2)cc1`, the CC50 [3] was 20.4 µM (active).

For `Nc1nonc1-n1nnc(C(=O)N/N=C/c2ccccc2)c1CSc1ccc(Cl)cc1`, the EC50 [2] was > 53 µM (inactive).

For `CCn1c(SCC(=O)N2CCN(c3cccc(Cl)c3)CC2)nc2ccccc2c1=O`, the CC50 [3] was 47.5 µM (active).

With `CCn1cc(C(=O)NCCCN(CC(C)C)CC(C)C)c(=O)c2cc(S(=O)(=O)N(C)C3CCCCC3)ccc21` the EC50 [2] was 7.06 µM (active).

For `CC(=O)c1cc(F)c(N2CCN(C(=O)C(C)(C)C)CC2)cc1C`, the IC50 [1] was > 47.1 µM (inactive) and the EC50 [2] was > 53 µM (inactive).

In the case of `CC12CC3CC(C)(C1)CC(C(=O)NNC(=O)c1ccncc1)(C3)C2`, the IC50 [1] was > 47.1 µM (inactive) and the EC50 [2] was > 53 µM (inactive).

With `O=C1C(Cl)=C(NCC2CCCO2)C(=O)N1c1ccccc1` (centres undefined) the AC50 [4] was 18.8 µM (active) and the EC50 (Protein RecA) was 6.58 µM (active).

For `Cc1ccc2c(cnn2C(=O)CCC(=O)N2CCCCC2)c1`, the IC50 [1] was > 47.1 µM (inactive) and the EC50 [2] was > 53 µM (inactive).

With `Cc1c(C(=O)Nc2cccc([N+](=O)[O-])c2)sc2ncn(CC(=O)N3CCOCC3)c(=O)c12` the IC50 [1] was > 47.1 µM (inactive) and the EC50 [2] was > 53 µM (inactive).

With `COCCn1c(N)c(C(=O)Nc2sc3c(c2C(=O)OC)CCCC3)c2nc3ccccc3nc21` the EC50 [5] was 1.83 µM (active), the EC50 (Streptokinase A) was > 150 µM (not active) and the EC50 (Streptococcus) was 82.4 µM (active). The CC50 [3] was > 50 µM (active).

For `CS/C(=C\[N+](=O)[O-])Nc1ccc(OC(F)(F)F)cc1`, the AC50 [4] was 14.6 µM (active) and the EC50 (Protein RecA) was 7.21 µM (active).

With `O=C(CCN1CCCC1=O)NC1CCCc2c1cnn2-c1ccccc1F` (centres undefined) the IC50 [1] was > 47.1 µM (inactive) and the EC50 [2] was > 53 µM (inactive).

With `Nc1ccccc1SC1CC(=O)N(c2ccc3c(c2)OCO3)C1=O` (centres undefined) the IC50 [1] was > 47.1 µM (inactive) and the EC50 [2] was > 53 µM (inactive).

For `Cc1c(C(c2ccc(N(C)C)cc2)c2c(C)n(C)n(-c3ccccc3)c2=O)c(=O)n(-c2ccccc2)n1C`, the IC50 [1] was > 47.1 µM (inactive) and the EC50 [2] was > 53 µM (inactive).

For `CC1=C(C#N)C(=O)NC(C)(C)C1`, the IC50 [1] was > 47.1 µM (inactive) and the EC50 [2] was > 53 µM (inactive).

With `N#C/C(=C\c1cccc(O)c1)c1nc2ccccc2o1` the AC50 [4] was 53.1 µM (active) and the EC50 (Protein RecA) was 9.27 µM (active).

For `COc1ccccc1NS(=O)(=O)c1cc(C(=O)N2CCCC2)ccc1F`, the IC50 [1] was > 47.1 µM (inactive) and the EC50 [2] was > 53 µM (inactive).
